Data reported in patent publication US20160106721A1, “HUMAN THERAPEUTIC AGENTS” (Life Plus, LLC, priority 2014, published 2016).

Key:
[1] = test system: human lung cancer cells (H358); experiment: cell death in lung cancer spheroids; format: cell-based; conditions: 24 hour exposure, increasing doses
Description: (§1) The respective cells were individually cultured in a growth medium prepared using RPMI-1640 medium containing 11.1 mM D-glucose with 10% fetal bovine serum, 10 mM HEPES, 2 mM L-glutamine, 1 mM sodium pyruvate, 0.05 mM 2-mercaptoethanol, and Antibiotic-Antimycotic. These cells were maintained in T75 tissue culture flasks in a humidified incubator at 37° C. and 5% CO2. The media were changed on a third day after cell plating, and the cells were passaged on day 5 by trypsinization.
(§2) Custom-made micromolds with 100 μm diameter wells were loaded with the cells (U.S. Pat. No. 8,735,154, incorporated by reference herein). The media were changed every day by partial replacement. Cell aggregates were allowed to form in the micromolds for 72 hours and then were transferred to a 100 mm non-treated tissue culture dishes for 3 additional days. The spheroids were passed through 70 μm and 100 μm cell strainers (#3431751 and #43152, Corning, Tewksbury, Mass.) and maintained in HEPES Balanced Salt Solution comprised of: 20 mM HEPES, 114 mM NaCl, 4.7 mM KCl, 1.2 mM KH2PO4, 1.16 mM MgSO4, 2.5 mM CaCl2, 25.5 mM NaHCO3 and 0.2% bovine serum albumin (fatty acid free), pH 7.2.
The lymphomas treatment methods used were identical to those described in Example 2 relative to the pediatric leukemia cells, whereas the lung cancer treatment method was the same as described in Example 1.

[2] = test system: human ovarian cancer cells (A1847); experiment: cell death in ovarian cancer spheroids; format: cell-based; conditions: 24 hour exposure, increasing doses
Description: as §1, §2
(§3) The cells were treated and tested as set forth in Example 1.

[3] = test system: human prostate cancer cells (22rv1); experiment: cell death in prostate cancer spheroids; format: cell-based; conditions: 24 hour exposure, increasing doses
Description: as §1, §2, §3

ovarian cancer cells = conditions: low doses of doxorubicin alone (up to 0.158 μM)
Description: In this test, the synergism of GZ17-6.02 with doxorubicin (a common chemotherapy drug) was tested on ovarian cancer cells. In this test, increasing doses of doxorubicin were administered to ovarian cancer spheroids and cell deaths were measured, as described in Example 1. The protocol involved testing doxorubicin alone at various dosages (FIG. 8, doxorubicin alone—closed circles), with comparative tests using the various dosages of doxorubicin in combination with either 0.2 mg/mL (FIG. 8 open circles) or 0.4 mg/mL (FIG. 8 closed triangles) GZ17-6.02. Additionally, the induced cell death results from use of 0.2 mg/mL GZ17-6.02 alone (FIG. 8, line A) and 0.4 mg/mL GZ17-6.02 alone (FIG. 8, line B) were determined.

Structure (SMILES) | cell death / anticancer effect (cell number) [1] | cell death / anticancer effect (cell number) [2] | cell death / anticancer effect (cell number) [3] | cell death, doxorubicin alone (ovarian cancer cells)
COc1cccc(C=O)c1O [O-vanillin] | demonstrated anticancer effects | demonstrated anticancer effects | demonstrated anticancer effects | 
COc1cccc2c1C(=O)c1c(O)c3c(c(O)c1C2=O)C[C@@](O)(C(=O)CO)C[C@@H]3O[C@H]1C[C@H](N)[C@H](O)[C@H](C)O1 [doxorubicin] |  |  |  | ineffective
COc1ccc2c3c([nH]c2c1)C(C)=NCC3 [harmaline] | demonstrated anticancer effects | demonstrated anticancer effects | demonstrated anticancer effects | 
CC1=NCCc2c1[nH]c1cc(O)ccc21.Cl [harmalol hydrochloride] | demonstrated anticancer effects | demonstrated anticancer effects | demonstrated anticancer effects | 
Cc1nccc2c1[nH]c1cc(O)ccc12.Cl [harmole hydrochloride] | demonstrated anticancer effects | demonstrated anticancer effects | demonstrated anticancer effects | 
COc1ccc(C(=O)O)cc1O [isovanillic acid] | demonstrated anticancer effects | demonstrated anticancer effects | demonstrated anticancer effects | 
COc1ccc(CO)cc1O [isovanillyl alcohol] | demonstrated anticancer effects | demonstrated anticancer effects | demonstrated anticancer effects | 
COc1ccc2c3c([nH]c2c1)[C@@H](C)NCC3 [tetrahydro-harmine] | demonstrated anticancer effects | demonstrated anticancer effects | demonstrated anticancer effects | 
COc1cc(C=O)ccc1O [vanillin] | demonstrated anticancer effects | demonstrated anticancer effects | demonstrated anticancer effects | 
